From publication PMC4841536, “Characterization of the Anti-HCV Activities of the New Cyclophilin Inhibitor STG-175” (PLoS ONE, 2016)
Where two headings read alike, the source gives them in different places.

Tests used:
[1] = target: T1, Human recombinant CypD (Homo sapiens, UniProt P30405); assay: α-chymotrypsin-coupled PPIase assay, CypD isomerase activity; type: biochemical; conditions: IC50, neutralization of the isomerase activity of CypD, 5°C, 10 concentrations 0.05–1000 nM
T1 construct: purchased Atgen
Description: Inhibition of CypA and CypD isomerase activities were quantified using a α-chymotrypsin-coupled assay adapted to a 96-well plate format. Human recombinant CypA or CypD (Atgen) was dissolved to 10 nM in PPIases buffer (50 mM Hepes, 100 mM NaCl, 1 mg/ml bovine serum albumin, 1 mg/ml α-chymotrypsin; pH 8). Succinyl-AAPF-pNA peptide substrate (Sigma) was dissolved to 3.2 mM in LiCl/trifluoroethanol. Each CypI was prepared at 10 concentrations in DMSO, then diluted into CypA/D PPIase buffer to 0.05–1000 nM. Incubations were performed at 5°C. Ninety five μL of reaction mix was added to 5 μL peptide in 96-wells and OD405 nm measured at 6-sec intervals for 6 min using a Biotek Synergy H4 plate reader. Data were fitted with Graphpad Prism 6.0 to acquire first-order rate constants, which were calculated by subtracting the rate constant from uncatalyzed reactions (no CypA/D). The catalytic rate constants were plotted as a function of inhibitor concentration to obtain IC50s.
The inhibition of the isomerase activities of CypA and CypD were measured with 10 increasing concentrations of STG-175 to quantify IC50 values.
Fig 1 Anti-PPIase and immunosuppressive activities of STG-175. A. Structures of cyclophilin inhibitors. Inhibition of CypA (B) and CypD (C) isomerase activities were assessed using the α-chymotrypsin-coupled assay. Each test compound was prepared at 10 concentrations (0.05–1000 nM). All solutions were equilibrated, and reactions conducted at 5°C. Reactions were initiated by mixing 95 μL reaction mix with 5 μL of the peptide to be cleaved and measuring OD405 nm at 6-sec intervals for 6 min. […] Enzyme catalyzed rate constants were calculated by subtracting the rate constant from uncatalyzed reactions (no CypA/D), and catalytic rate constants plotted as a function of inhibitor concentration to obtain IC50s. […] D. IL-2 promoter activation upon T-cell stimulation was determined using an engineered Jurkat T-cell line, which expresses betagalactosidase. […] The Y-axis values are expressed as percentage of activity. Data expressed as EC50s are representative of two independent experiments.

[2] = system: HCV GT1b subgenomic replicon pFK-I389/NS3-3’; assay: Luciferase reporter replicon antiviral assay, GT1b; type: cell-based; conditions: Hepatitis C virus
Description: The anti-HCV activity of STG-175 was conducted using a panel of luciferase reporter replicon cell lines including GT1a, GT1b, GT2a, GT3a and GT4a as we described previously. The GT1a subgenomic renilla luciferase reporter replicon H77 RLucP (7) was supplied by Dr. Delaney. The GT1b subgenomic firefly luciferase reporter replicon pFK-I389/NS3-3’ [29] was supplied by Dr. Bartenschlager. The GT1B subgenomic NS3, NS5A and NS5B mutants were created via homologous recombination using the In-Fusion HD Cloning kit (Clontech) as we described previously. The GT2a genomic luciferase reporter replicon Luc-Neo-JFH-1 was generated as previously. The plasmid pFK-Luc-JFH1 was supplied from Drs. Wakita and Pietschmann and the XbaI site in the firefly luciferase gene and the NotI site in the EMCV IRES were used to take the Luciferase/Ubiquitin-NPT II (the neomycin phosphotransferase II gene) fusion cassette out of pFK389ILuc-Neo (wild-type replicon from GT1b) and inserted into the pFK-Luc-JFH1 plasmid, generating full-length Luc-Neo-JFH-1 [30]. The GT3a subgenomic firefly luciferase reporter replicon S52/SG-Feo (AI) and the GT4a subgenomic firefly luciferase reporter replicon ED43/SG-Feo [33] were supplied by Drs. Rice and Bukh. Replicons were stably expressed in Huh7.5 or Huh7.5.1 cells under G418 selection. On Day 1, cells (5,000) were plated into 96-well plates in complete DMEM containing 10% FCS. On Day 2, increasing drug concentrations were added to wells. On Day 5, 72 h post-drug addition, medium was removed and replaced with 100 μL of fresh medium. Hundred μL of the fluorogenic, cell-permeant peptide substrate glycyl-phenylalanyl-amino fluorocoumarin was added to wells as per manufacturer’s recommendation (Promega Corp, Madison, WI). The CellTiter-Fluor™ Cell Viability Assay is a non-lytic fluorescence assay, which measures the number of live cells. […] Medium was removed, cells washed and lysed in 20 μL of Cell Culture Lysis Reagent. Luciferase activity was determined using the Luciferase Assay System (Promega) in a Berthold luminometer. The alamarBlue® assay (Thermo Fischer Scientific) was used to measure CC50s for STG-175 on replicon cell lines. When cells are alive they maintain a reducing environment within the cytosol of the cell. […] Upon entering cells, resazurin is reduced to resorufin, a compound that is red in color and highly fluorescent. Viable cells continuously convert resazurin to resorufin, increasing the overall fluorescence and color of the media surrounding cells.
Fig 2 Anti-HCV activities of STG-175 among GTs. A. Replicon-containing cells (5,000) were exposed to increasing concentrations of the indicated drugs. Seventy-two hours post-drug addition, the fluorogenic, cell-permeant peptide substrate glycyl-phenylalanyl-amino fluorocoumarin was added to measure the number of live cells. […] Luciferase activity was determined using the Luciferase Assay System in a Berthold luminometer. B. A similar experiment was conducted with the GT1b replicon cell line in 0, 5, 10, 20 and 40% of human serum. Data are expressed as mean of relative light units and calculated EC50s are presented. […] C.

[3] = system: HCV GT3a subgenomic replicon S52/SG-Feo (AI); assay: Luciferase reporter replicon antiviral assay, GT3a; type: cell-based; conditions: Hepatitis C virus
Description: The anti-HCV activity of STG-175 was conducted using a panel of luciferase reporter replicon cell lines including GT1a, GT1b, GT2a, GT3a and GT4a as we described previously. The GT1a subgenomic renilla luciferase reporter replicon H77 RLucP (7) was supplied by Dr. Delaney. The GT1b subgenomic firefly luciferase reporter replicon pFK-I389/NS3-3’ [29] was supplied by Dr. Bartenschlager. The GT1B subgenomic NS3, NS5A and NS5B mutants were created via homologous recombination using the In-Fusion HD Cloning kit (Clontech) as we described previously. The GT2a genomic luciferase reporter replicon Luc-Neo-JFH-1 was generated as previously. The plasmid pFK-Luc-JFH1 was supplied from Drs. […] The CellTiter-Fluor™ Cell Viability Assay is a non-lytic fluorescence assay, which measures the number of live cells. […] Luciferase activity was determined using the Luciferase Assay System (Promega) in a Berthold luminometer. […] Viable cells continuously convert resazurin to resorufin, increasing the overall fluorescence and color of the media surrounding cells.
Fig 2 Anti-HCV activities of STG-175 among GTs. […] Luciferase activity was determined using the Luciferase Assay System in a Berthold luminometer. […] Data are expressed as mean of relative light units and calculated EC50s are presented. […]

[4] = system: HCV GT1a, GT1b, GT2a, GT3a and GT4a replicons; assay: Panel of HCV replicon cell lines GT1a to 4a (summary statements); type: cell-based; conditions: Hepatitis C virus, read-out: EC50 range among HCV GTs (GT1a to 4a), multi-genotypic anti-HCV activity
[5] = system: HBV in mixed PBMCs, NTCP-Huh7 and Huh7.5.1 cells; assay: Dual/triple co-infection in cell co-cultures, HBV readout; type: cell-based, hepatitis B virus

T1 sequence (P30405 30-207): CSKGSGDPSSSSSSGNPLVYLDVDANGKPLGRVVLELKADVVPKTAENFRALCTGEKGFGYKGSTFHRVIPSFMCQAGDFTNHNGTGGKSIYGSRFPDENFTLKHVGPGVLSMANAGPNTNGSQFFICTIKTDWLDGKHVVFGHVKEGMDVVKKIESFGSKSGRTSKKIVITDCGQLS

CC=CCC(C)C(O)C1C(=O)NC(CC)C(=O)N(C)C(CSCCCCO)C(=O)N(C)C(CC(C)(C)O)C(=O)NC(C(C)C)C(=O)N(C)C(CC(C)C)C(=O)NC(C)C(=O)NC(C)C(=O)N(C)C(CC(C)C)C(=O)N(C)C(CC(C)C)C(=O)N(C)C(C(C)C)C(=O)N1C (stereo not drawn) [STG-175] was tested, and the IC50 [1] was 1.3 nM, the EC50 ([2]; 0% human serum, read-out: EC50 GT1b in human serum) was 16 nM and the EC50 ([2]; 5% human serum, read-out: EC50 GT1b in human serum) was 15 nM. It also gave an EC50 ([2]; 10% human serum, read-out: EC50 GT1b in human serum) of 18.8 nM, an EC50 ([2]; 20% human serum, read-out: EC50 GT1b in human serum) of 22.2 nM and an EC50 ([2]; 40% human serum, read-out: EC50 GT1b in human serum) of 37.2 nM. It also gave an EC50 ([2]; 72 h, 72 h post-drug addition, luciferase, read-out: EC50 GT1b) of 15.1 nM, an EC50 ([3]; 72 h, read-out: EC50 GT3a) of 38.9 nM and an EC50 ([3]; read-out: EC50 GT3a (Fig 2D)) of 38.9 nM. For the same compound, the EC50 [4] was 11.5 to 38.9 nM, the “HBV infection in co-infection” value ([5]; STG-175 added together with virus) was “greatly attenuated” and the “pre-established HBV infection in co-infection” value ([5]; added 3 days post-infection and then every 3 days) was “decreased the viral expansion”.
